Test results reported in US20150025131A1 (priority 2013, published 2015).
Entries after “also recorded” stand apart in the source; their conditions may differ.

What was measured:
serum TNF-α = assay: Adjuvant induced arthritis model, serum TNF-α; type: in vivo, Sprague Dawley rats; details: AIA rats, daily intraperitoneal; Patuletin 25 mg/kg, indomethacin 5 mg/kg
Protocol: (§1) All studies were carried out using Female Sprague Dawley (SD) rats weighing 150-250 gms. Animals were kept at 21±2° C. and on a 12-h light/dark cycle, received standardized pelleted diet and tap water. Experiments were performed under the ethical guidelines of the International Association for the study of pain in conscious animals. Each group contains 12 animals with randomly distributed weights into each treatment group.
(§2) Arthritis was induced by injecting freshly prepared 100 μL of 1 mg suspension of lyophilized Mycobacterium tuberculosis H37Ra (MT H37Ra; DIFCO Laboratories, Detroit, Mich., USA), subcutaneously at the rat tail base using sterile hypodermic needle. Inoculation was carried out under anesthesia with a combination of 20 mg/kg ketamine and 5 mg/kg xylazine, injected intraperitoneally. Compound and the reference drug were administered daily, intraperitoneally using sterile syringes. The positive control received vehicle (5% DMSO+PBS) or saline only; treatment groups received test compounds (25 mg/kg), whereas reference group received indomethacin (5 mg/kg). The doses of the test compounds were selected after preliminary dose finding studies. […]
(§3) The quantitative measurement of TNF-α and IL-1β was done in serum of all groups of animals including arthritic and non-arthritic using commercial ELISA assay kits (Abcam, USA) according to the manufacturer's instructions. […]

serum IL-1β = assay: Adjuvant induced arthritis model, serum IL-1β; type: in vivo, Sprague Dawley rats; details: AIA rats, daily intraperitoneal; Patuletin 25 mg/kg, indomethacin 5 mg/kg
Protocol: as §1, §2, §3

serum nitric oxide = assay: Adjuvant induced arthritis model, serum nitric oxide; type: in vivo, Sprague Dawley rats; details: AIA rats, daily intraperitoneal; Patuletin 25 mg/kg, indomethacin 5 mg/kg
Protocol: as §1
(§4) Arthritis was induced by injecting freshly prepared 100 μL of 1 mg suspension of lyophilized Mycobacterium tuberculosis H37Ra (MT H37Ra; DIFCO Laboratories, Detroit, Mich., USA), subcutaneously at the rat tail base using sterile hypodermic needle. […]
(§5) Peroxide (PO) and nitric oxide (NO), in serum were determined in the serum samples of both the normal and arthritic groups, using quantitative colorimetric assay kits, i.e., the Quantichrom ™ Nitric Oxide Assay Kit, and the Quantichrome™ Peroxide assay kit Diox-250 (BioAssay Systems, Hayward, Calif., USA). […] The samples were analyzed in duplicates using 96-well plate and the plate was read at 540 nm. The Quantichrome™ Peroxide assay kit Diox −250 system is an improved method which utilizes the oxidation of Fe^++ by peroxide present in the analyzed sample resulting in formation of purple complex that gives the accurate measure of peroxide level in the sample when read at 540-610 nm.

serum peroxide = assay: Adjuvant induced arthritis model, serum peroxide; type: in vivo, Sprague Dawley rats; details: AIA rats, daily intraperitoneal; Patuletin 25 mg/kg, indomethacin 5 mg/kg
Protocol: as §1, §4, §5

rheumatoid factor = assay: Adjuvant induced arthritis model, serum RA factor; type: in vivo, Sprague Dawley rats; details: AIA rats, daily intraperitoneal; Patuletin 25 mg/kg, indomethacin 5 mg/kg
Protocol: as §1
Arthritis was induced by injecting freshly prepared 100 μL of 1 mg suspension of lyophilized Mycobacterium tuberculosis H37Ra (MT H37Ra; DIFCO Laboratories, Detroit, Mich., USA), subcutaneously at the rat tail base using sterile hypodermic needle. Inoculation was carried out under anesthesia with a combination of 20 mg/kg ketamine and 5 mg/kg xylazine, injected intraperitoneally. Compound and the reference drug were administered daily, intraperitoneally using sterile syringes. […]
Measurement of RA factor in rat serum was determined using Tina-quant RFII Kit (Roche Diagnostics, USA) and automated analyzers according to manufacturer's instructions. The test principle involves the reaction of latex bound heat inactivated IgG (antigen) with RF antibodies in the sample to form Ag/Ab complex resulting in agglutination which can be measured turbidimetrically.

[1] = system: knee joints of arthritic rats; assay: Adjuvant induced arthritis model, histopathology of knee joints (H & E); type: in vivo, Sprague Dawley rats; details: H & E staining
Protocol: as §1
Arthritis was induced by injecting freshly prepared 100 μL of 1 mg suspension of lyophilized Mycobacterium tuberculosis H37Ra (MT H37Ra; DIFCO Laboratories, Detroit, Mich., USA), subcutaneously at the rat tail base using sterile hypodermic needle. Inoculation was carried out under anesthesia with a combination of 20 mg/kg ketamine and 5 mg/kg xylazine, injected intraperitoneally. Compound and the reference drug were administered daily, intraperitoneally using sterile syringes. The positive control received vehicle (5% DMSO+PBS) or saline only; treatment groups received test compounds (25 mg/kg), whereas reference group received indomethacin (5 mg/kg). The doses of the test compounds were selected after preliminary dose finding studies. The treatment was started on the same day after vaccination.
The animals were sacrificed at the end of the experiment and samples were taken from the knee joints. Sample fixation were done using 10% formalin following decalcification. The samples were then processed, embedded, cut, mounted and stained with hematoxylin and eosin (H & E) dye for microscopic evaluation.

[2] = system: ROS production from human peripheral whole blood phagocytes; assay: Luminol enhanced chemiluminescence oxidative burst, whole blood; type: cell-based; details: luminol enhanced, serum opsonized zymosan, read-out: Myeloperoxidase dependent Oxidative Burst (IC50 μg/mL) Whole blood
Protocol: (§6) Intracellular effect was determined using human peripheral whole blood phagocytes and isolated neutrophils and from mice peritoneum macrophages, where luminol-enhanced chemillumenescence assay was applied. The effect on myeloperoxidase independent ROS production was determined using lucigenin on murine macrophages RAW.267 cells.
(§7) Table 2. […] 267 cells (murine macrophages). DPI is used as standard drug. Reading presents mean±SD of three determinations.
(§8) Luminol enhanced chemiluminescence technique was applied to study the effect of compound on ROS from phagocytes, Using whole blood, neutrophil and macrophages Briefly, 25 μL diluted whole blood (1:50 dilution in sterile HBSS^++) or 25 μL of PMNs (1×10^6), or 25 μL of isolated macrophages (1×10^6) were incubated with 25 μL of compound in triplicates and using three different concentrations (1, 10 and 100 μg/mL) using white 96 wells plates. Wells received HBSS^++ and cells only without compound served as positive control. 25 μL of serum opsonized zymosan-A (SOZ), followed by 25 μL luminol (7×10^−5 M), was added to each well to maintain a volume of 100 μL/well. Plates were then incubated at 37° C. for 30 minutes in the thermostated chamber of the luminometer. Results were monitored as relative light unit (RLU) reading, with peak and total integral values set with repeated scans at 60 seconds intervals, and 1 second points measuring time.

[3] = system: ROS production from human neutrophils; assay: Luminol enhanced chemiluminescence oxidative burst, isolated neutrophils; type: cell-based; details: Neutrophil, serum opsonized zymosan, read-out: Myeloperoxidase dependent Oxidative Burst (IC50 μg/mL) Neutrophils
Protocol: as §6, §7
Heparinized blood was obtained by vein puncture aseptically, from healthy volunteers (25-38 years age). The buffy coat containing polymorhonuclear neutrophils (PMNs) was collected by dextran sedimentation, and cells were isolated after the LSM density gradient centrifugation. […]
as §8, with “Wells received HBSS^++ and cells only without compound served as positive control. 25 μL of serum opsonized zymosan-A (SOZ), followed by 25 μL luminol (7×10^−5 M), was added to each well to maintain a volume of 100 μL/well. Plates were then incubated at 37° C. for 30 minutes in the thermostated chamber of the luminometer.” left out

[4] = system: ROS production from mice peritoneal macrophages; assay: Luminol enhanced chemiluminescence oxidative burst, mice peritoneal macrophages; type: cell-based; details: Mus musculus, Peritoneal macrophage, serum opsonized zymosan, read-out: Myeloperoxidase dependent Oxidative Burst (IC50 μg/mL) Macrophages
Protocol: as §6, §7
NMRI mice of 25 to 30 gm weight were injected aseptically with 1 mL of heat inactivated fetal bovine serum (FBS) in the peritoneum cavity, using sterile 1 mL syringe and mice were kept for further 72 h. […] Cells were counted and concentration was adjusted to 1×10^6/mL for chemiluminescence assay.
as §8, with “Wells received HBSS^++ and cells only without compound served as positive control. 25 μL of serum opsonized zymosan-A (SOZ), followed by 25 μL luminol (7×10^−5 M), was added to each well to maintain a volume of 100 μL/well. Plates were then incubated at 37° C. for 30 minutes in the thermostated chamber of the luminometer.” left out

TNF-α production = TNF-α production from PMA differentiated, LPS activated THP-1 cells (ELISA); type: cell-based, human; details: 4 h
Protocol: The symbol * and δ represents the P≦0.03 and P≦0.006, respectively.
FIG. 2 depicts the effect of pentoxyfillin (PTX) on TNF-α production (pg/mL) Human monocytic leukemia THP-1 cells were differentiated and activated with 20 ng/mL of PMA and 50 ng/mL of LPS, respectively and incubated with different concentrations of PTX for 4h, the supernatant was analyzed for the level of TNF-α by ELISA. The symbol * represents P≦of 0.03.
THP-1 (human monocytic leukemia) cells were maintained in RPMI-1640 supplemented with 10% FBS, 2 mmol/L glutamine, 5.5 mmol/L glucose, 50 μmol/L mercaptoethanol, 1 mmol/L sodium pyruvate, and 10 mmol/L HEPES and incubated at 37° C. in 5% CO2. Cells were grown in […] culture flask until they attained 70% confluency. Cells were then plated in 24-well tissue culture plates at a concentration of 2.5×10^5 cells/mL. Cells were differentiated into macrophages using PMA at a final concentration of 20 ng/mL and further incubated at 37° C. in 5% CO2 environment for 24 h. […] After addition of the compound cells were then incubated for 4 h for TNF-α production and 18 h for IL-1β production at 37° C. in 5% CO2. The supernatants were harvested and analyzed for the level of TNF-α and IL-1β, by human TNF-α and IL-1β Duo set ELISA kits, and according to the manufacturer's instructions.

[5] = system: PHA activated T cells isolated from human peripheral blood; assay: Thymidine incorporation T cell proliferation assay (PHA activated); type: cell-based; details: 72 h
Protocol: Heparinized blood was obtained by vein puncture aseptically from healthy volunteers (25-38 years age). Blood (10 mL) was mixed with incomplete RPMI, layered on 5 mL of Lymphocyte separation medium and centrifuged at 400 g for 20 min at room temperature. Buffy layer was collected and mixed with incomplete RPMI and centrifuged at 4° C. for 10 min at 300 g. Cells were obtained after the RBCs (if any) lysis using hypotonic solution, and washed at 4° C. for 10 min at 300 g. The cells were then suspended in complete RPMI containing 5% FBS and their concentration was adjusted to 2×10^6 cells/mL for T-cell proliferation assay.
Cell proliferation assay was conducted through standard thymidine incorporation technique. Briefly, isolated T-cells from peripheral blood of healthy individuals were plated at a concentration of 2×10^6 cells/mL in a round bottom 96-well tissue culture plates. Cells were stimulated with 7.5 μg/mL of PHA. […] The plate was then incubated for 72 hours at 37° C. in 5% CO2 incubator. After 72 hours, cultures were pulsed with 0.5 μCi/well tritiated thymidine (Amersham Pharmacia Biotech), and further incubated for 18 h. Cells were harvested onto a glass fiber filters using cell harvester (Innotech, Dottikon, Switzerland). The level of the thymidine incorporated into the cells was measured by a liquid scintillation counter (LS 6500, Beckman Coulter, Fullerton, Calif., USA). Results were expressed as mean count per minute (CPM). The inhibitory activity of compounds on T-lymphocyte proliferation was calculated using the following formula: […]

[6] = system: ROS production from PMA activated RAW. 267 cells (murine macrophages); assay: Lucigenin enhanced (myeloperoxidase independent) oxidative burst; type: cell-based; details: lucigenin enhanced, PMA activated RAW. 267 cells
Protocol: as §6, with “cells. […] Table 2. […] 267 cells (murine macrophages). DPI is used as standard drug. Reading presents mean±SD of three determinations.” for “cells.”

COc1ccc2c(c1)c(CC(=O)O)c(C)n2C(=O)c1ccc(Cl)cc1 [Indomethacin, reference compound]
level of TNF-α in serum versus arthritic control group (serum TNF-α): marked decrease
level of IL-1β in serum versus arthritic control group (serum IL-1β): significant decrease; also recorded: marked decrease
level of nitric oxide in serum versus arthritic control group (serum nitric oxide): marked reduction; also recorded: significant decrease
level of peroxide in serum versus arthritic control group (serum peroxide): decrease; also recorded: non-significant reduction
level of RA factor (rheumatoid factor) in serum versus arthritic control group (rheumatoid factor): marked decrease
histopathology of knee joints (in words) versus arthritic control rats [1]: less infiltration of lymphocytes and minimal bone destruction
histopathology score of knee joints ([1]; normal control score 0, arthritic control score 4): 2

CC(C)Cc1ccc(C(C)C(=O)O)cc1 (centres unmarked) [Ibuprofen, reference compound]
IC50 [2]: 11.2 ± 1.9 µg/mL
IC50 [3]: 2.5 ± 0.6 µg/mL
IC50 [4]: 16.9 ± 2.5 µg/mL

CC(=O)CCCCn1c(=O)c2c(ncn2C)n(C)c1=O [pentoxyfillin, reference compound]
inhibition of TNF-α production (IC50) (TNF-α production): 94.8 µg/mL

C[C@]12C=CC(=O)C=C1CC[C@@H]1[C@@H]2[C@@H](O)C[C@@]2(C)[C@H]1CC[C@]2(O)C(=O)CO [Prednisolone]
Human T cell proliferation (IC50 μg/mL) [5]: <0.62 µg/mL
IC50 ([5]; Homo sapiens, T-cell, read-out: Human T cell proliferation (IC50 μg/mL)): < 0.62 µg/mL

[Cl-].c1ccc2c(c1)[I+]c1ccccc1-2 [DPI, reference compound]
Myeloperoxidase independent Oxidative Burst (IC50 μg/mL) on macrophages [6]: 1.6 ± 0.1 µg/mL
